From patent US9290777B2, “Putative cytokinin receptor and methods for use thereof” (NATIONAL UNIVERSITY OF SINGAPORE, priority 2007, dated 2016)

Columns and labels:
purified TAP-HOG1 = biological target: T1, purified TAP-HOG1 (Arabidopsis thaliana, UniProt O23255); experiment: biochemical; assay type: binding; conditions: ITC, ligand injected into purified TAP-HOG1; KD = 1/KA; read-out: KD (dissociation constant)
T1 construct: Protein A (ProtA part of the TAP tag, TEV site between ProtA and CBP) (N, cleaved yes); made in house; host or cells: transgenic Arabidopsis thaliana harbouring 35S:TAP-HOG1
T1 sequence (O23255 other isoform, or with tags, fused parts or gaps with the stated changes): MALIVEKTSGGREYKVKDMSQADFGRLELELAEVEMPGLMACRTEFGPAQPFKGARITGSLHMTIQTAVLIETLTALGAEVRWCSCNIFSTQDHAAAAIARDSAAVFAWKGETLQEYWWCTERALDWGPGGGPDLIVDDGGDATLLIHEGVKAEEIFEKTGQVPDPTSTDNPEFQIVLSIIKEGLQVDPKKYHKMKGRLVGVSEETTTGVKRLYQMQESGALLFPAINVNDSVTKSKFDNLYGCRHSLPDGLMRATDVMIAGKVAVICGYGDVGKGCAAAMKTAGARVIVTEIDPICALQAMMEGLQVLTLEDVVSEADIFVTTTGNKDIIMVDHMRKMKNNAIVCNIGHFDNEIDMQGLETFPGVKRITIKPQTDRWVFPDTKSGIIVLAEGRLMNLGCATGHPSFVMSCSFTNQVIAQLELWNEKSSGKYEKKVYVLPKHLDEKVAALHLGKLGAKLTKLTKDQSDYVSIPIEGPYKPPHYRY
Procedure: Cytokinin binding affinity and thermodynamic analysis of the interaction between HOG1 and cytokinins was examined by ITC (MCSITC, Microcal, Northampton, USA). Three naturally occurring cytokinins (zeatin, benzyladenine and isopentenyl adenine) and thidiazuron (an urea-derived synthetic cytokinin) were used. Additionally, adenosine and NAD were used as control molecules to verify the binding specificity of HOG1 to cytokinins. Data were analyzed by MICROCAL ORIGIN version 2.9 using the best-fit, nonlinear least-squares method for one binding site. The binding stoichiometry (n), and association constant (KA) were calculated from the fitted curves. Subsequently, KD was calculated as 1/KA. Raw heat data were corrected to baseline drift obtained from injections of 0.1 μM purified AHP1 into the sample cell containing 2 μM purified TAP-HOG1. Binding isotherms were created by plotting the heat peak areas against the molar ratio of AHP1 added to HOG1.
Cytokinin binding affinity and thermodynamic analysis of the interaction between HOG1 and cytokinins was examined by ITC (MCSITC, Microcal, Northampton, USA). TAP-HOG1 fusion protein was purified using published protocols (Forler et al. supra) from transgenic Arabidopsis plants harboring the 35S:TAP-HOG1 construct. 0.01 μM benzyladenine (a naturally occurring cytokinin) and 0.1 μM of purified TAP-HOG1 protein were used for each ITC assay with 25 injections (each injection of 2 μl at […] intervals at 37° C.). Data were analyzed with MICROCAL ORIGIN version 2.9 using the best-fit, nonlinear least-squares method for one binding site. The binding stoichiometry (n), and association constant (KA) were calculated from the fitted curves. Subsequently, KD was calculated as 1/KA.

ARR5 = experiment: qRT-PCR of cytokinin responsive gene after BA pulse, fold change vs untreated wild type; assay type: cell-based, Arabidopsis thaliana
ARR1 and ARR2 = experiment: qRT-PCR of type-B ARRs after BA treatment; assay type: cell-based, Arabidopsis thaliana; conditions: transgenic lines
Procedure: For quantitative real-time PCR (qRT-PCR) analysis of cytokinin-inducible gene expression, seeds were germinated on MS medium with 3% (w/v) sucrose and grown for 6 days. Cytokinin treatment was carried out by incubating seedlings in the same MS+sucrose liquid medium (no agar) supplemented with 0, 0.01, 0.1, 1 or 5 μM [solubilized in 0.1% dimethylsulfoxide (DMSO) and diluted with the MS medium] for 5 min, 15 min, 30 min or 1 h. The control seedlings were incubated with DMSO (0.1%, the concentration used to dissolve cytokinins for the treatment) for the corresponding durations and used for expression analysis. Before RNA preparation, WT, OE and AS seedlings were pooled and stored in RNAlater solution (Qiagen, Valencia, Calif.). Total RNA was extracted using the Rneasy Plant Mini Kit (Qiagen). SYBRgreen RT-PCR reagents (Applied Biosystems) were used to synthesize double-stranded cDNA. The number of transcripts present in biological replicates each of WT, OE and AS seedlings, with or without BA and DMSO, was determined from three independent replicates. Fold induction of the transcripts was calculated according to the manufacturer's instructions (ABI Prism 7700 Sequence Detection System, User Bulletin #2).

**Q.** Which results are given for c1ccc(CNc2ncnc3nc[nH]c23)cc1 [benzyladenine]?
**A.** Kd (purified TAP-HOG1): 20.6 nM; ARR5 fold change (ARR5; BA 0.01 μM, 5 min, AS1, ↑ up): 4.33↑; ARR5 fold change (ARR5; BA 0.01 μM, 5 min, AS8, ↑ up): 6.12↑; ARR5 fold change (ARR5; BA 0.01 μM, 5 min, AS21, ↑ up): 8.2↑; ARR5 fold change (ARR5; BA 0.01 μM, 5 min, OE1, ↓ down): 4.51↓; ARR5 fold change (ARR5; BA 0.01 μM, 5 min, OE12, ↓ down): 5.87↓; ARR5 fold change (ARR5; BA 0.01 μM, 5 min, OE18, ↓ down): 7.33↓; ARR5 fold change (ARR5; BA 0.01 μM, 5 min, Wild type, ↑ up): 3.55↑; ARR5 fold change (ARR5; BA 0.01 μM, 15 min, AS1, ↑ up): 4.77↑; ARR5 fold change (ARR5; BA 0.01 μM, 15 min, AS8, ↑ up): 6.68↑; ARR5 fold change (ARR5; BA 0.01 μM, 15 min, AS21, ↑ up): 8.58↑; ARR5 fold change (ARR5; BA 0.01 μM, 15 min, OE1, ↓ down): 4.33↓; ARR5 fold change (ARR5; BA 0.01 μM, 15 min, OE12, ↓ down): 5.55↓; ARR5 fold change (ARR5; BA 0.01 μM, 15 min, OE18, ↓ down): 7.03↓; ARR5 fold change (ARR5; BA 0.01 μM, 15 min, Wild type, ↑ up): 3.64↑; ARR5 fold change (ARR5; BA 0.01 μM, 30 min, AS1, ↑ up): 5.01↑; ARR5 fold change (ARR5; BA 0.01 μM, 30 min, AS8, ↑ up): 6.82↑; ARR5 fold change (ARR5; BA 0.01 μM, 30 min, AS21, ↑ up): 8.79↑; ARR5 fold change (ARR5; BA 0.01 μM, 30 min, OE1, ↓ down): 4.11↓; ARR5 fold change (ARR5; BA 0.01 μM, 30 min, OE12, ↓ down): 5.21↓; ARR5 fold change (ARR5; BA 0.01 μM, 30 min, OE18, ↓ down): 6.91↓; ARR5 fold change (ARR5; BA 0.01 μM, 30 min, Wild type, ↑ up): 4.11↑; ARR5 fold change (ARR5; BA 0.01 μM, 1 h, AS1, ↑ up): 5.11↑; ARR5 fold change (ARR5; BA 0.01 μM, 1 h, AS8, ↑ up): 7.16↑; ARR5 fold change (ARR5; BA 0.01 μM, 1 h, AS21, ↑ up): 9.15↑; ARR5 fold change (ARR5; BA 0.01 μM, 1 h, OE1, ↓ down): 3.91↓; ARR5 fold change (ARR5; BA 0.01 μM, 1 h, OE12, ↓ down): 4.96↓; ARR5 fold change (ARR5; BA 0.01 μM, 1 h, OE18, ↓ down): 6.63↓; ARR5 fold change (ARR5; BA 0.01 μM, 1 h, Wild type, ↑ up): 4.3↑; ARR5 fold change (ARR5; BA 0.1 μM, 5 min, AS1, ↑ up): 5.34↑; ARR5 fold change (ARR5; BA 0.1 μM, 5 min, AS8, ↑ up): 7.32↑; ARR5 fold change (ARR5; BA 0.1 μM, 5 min, AS21, ↑ up): 9.31↑; ARR5 fold change (ARR5; BA 0.1 μM, 5 min, OE1, ↓ down): 4.1↓; ARR5 fold change (ARR5; BA 0.1 μM, 5 min, OE12, ↓ down): 4.71↓; ARR5 fold change (ARR5; BA 0.1 μM, 5 min, OE18, ↓ down): 6.69↓; ARR5 fold change (ARR5; BA 0.1 μM, 5 min, Wild type, ↑ up): 4.66↑; ARR5 fold change (ARR5; BA 0.1 μM, 15 min, AS1, ↑ up): 5.59↑; ARR5 fold change (ARR5; BA 0.1 μM, 15 min, AS8, ↑ up): 7.49↑; ARR5 fold change (ARR5; BA 0.1 μM, 15 min, AS21, ↑ up): 9.46↑; ARR5 fold change (ARR5; BA 0.1 μM, 15 min, OE1, ↓ down): 4.04↓; ARR5 fold change (ARR5; BA 0.1 μM, 15 min, OE12, ↓ down): 4.63↓; ARR5 fold change (ARR5; BA 0.1 μM, 15 min, OE18, ↓ down): 6.51↓; ARR5 fold change (ARR5; BA 0.1 μM, 15 min, Wild type, ↑ up): 4.78↑; ARR5 fold change (ARR5; BA 0.1 μM, 30 min, AS1, ↑ up): 5.89↑; ARR5 fold change (ARR5; BA 0.1 μM, 30 min, AS8, ↑ up): 7.73↑; ARR5 fold change (ARR5; BA 0.1 μM, 30 min, AS21, ↑ up): 9.68↑; ARR5 fold change (ARR5; BA 0.1 μM, 30 min, OE1, ↓ down): 3.9↓; ARR5 fold change (ARR5; BA 0.1 μM, 30 min, OE12, ↓ down): 4.4↓; ARR5 fold change (ARR5; BA 0.1 μM, 30 min, OE18, ↓ down): 6.23↓; ARR5 fold change (ARR5; BA 0.1 μM, 30 min, Wild type, ↑ up): 4.95↑; ARR5 fold change (ARR5; BA 0.1 μM, 1 h, AS1, ↑ up): 6.07↑; ARR5 fold change (ARR5; BA 0.1 μM, 1 h, AS8, ↑ up): 8.04↑; ARR5 fold change (ARR5; BA 0.1 μM, 1 h, AS21, ↑ up): 9.97↑; ARR5 fold change (ARR5; BA 0.1 μM, 1 h, OE1, ↓ down): 3.67↓; ARR5 fold change (ARR5; BA 0.1 μM, 1 h, OE12, ↓ down): 4.01↓; ARR5 fold change (ARR5; BA 0.1 μM, 1 h, OE18, ↓ down): 6.01↓; ARR5 fold change (ARR5; BA 0.1 μM, 1 h, Wild type, ↑ up): 5.06↑; ARR5 fold change (ARR5; BA 1.0 μM, 5 min, AS1, ↑ up): 6.62↑; ARR5 fold change (ARR5; BA 1.0 μM, 5 min, AS8, ↑ up): 8.59↑; ARR5 fold change (ARR5; BA 1.0 μM, 5 min, AS21, ↑ up): 9.99↑; ARR5 fold change (ARR5; BA 1.0 μM, 5 min, OE1, ↓ down): 3.96↓; ARR5 fold change (ARR5; BA 1.0 μM, 5 min, OE12, ↓ down): 3.99↓; ARR5 fold change (ARR5; BA 1.0 μM, 5 min, OE18, ↓ down): 5.36↓; ARR5 fold change (ARR5; BA 1.0 μM, 5 min, Wild type, ↑ up): 5.21↑; ARR5 fold change (ARR5; BA 1.0 μM, 15 min, AS1, ↑ up): 6.88↑; ARR5 fold change (ARR5; BA 1.0 μM, 15 min, AS8, ↑ up): 8.93↑; ARR5 fold change (ARR5; BA 1.0 μM, 15 min, AS21, ↑ up): 10.12↑; ARR5 fold change (ARR5; BA 1.0 μM, 15 min, OE1, ↓ down): 3.71↓; ARR5 fold change (ARR5; BA 1.0 μM, 15 min, OE12, ↓ down): 3.46↓; ARR5 fold change (ARR5; BA 1.0 μM, 15 min, OE18, ↓ down): 5.21↓; ARR5 fold change (ARR5; BA 1.0 μM, 15 min, Wild type, ↑ up): 5.46↑; ARR5 fold change (ARR5; BA 1.0 μM, 30 min, AS1, ↑ up): 6.93↑; ARR5 fold change (ARR5; BA 1.0 μM, 30 min, AS8, ↑ up): 9.09↑; ARR5 fold change (ARR5; BA 1.0 μM, 30 min, AS21, ↑ up): 10.35↑; ARR5 fold change (ARR5; BA 1.0 μM, 30 min, OE1, ↓ down): 3.49↓; ARR5 fold change (ARR5; BA 1.0 μM, 30 min, OE12, ↓ down): 3.77↓; ARR5 fold change (ARR5; BA 1.0 μM, 30 min, OE18, ↓ down): 5.01↓; ARR5 fold change (ARR5; BA 1.0 μM, 30 min, Wild type, ↑ up): 5.79↑; ARR5 fold change (ARR5; BA 1.0 μM, 1 h, AS1, ↑ up): 7.31↑; ARR5 fold change (ARR5; BA 1.0 μM, 1 h, AS8, ↑ up): 9.17↑; ARR5 fold change (ARR5; BA 1.0 μM, 1 h, AS21, ↑ up): 10.76↑; ARR5 fold change (ARR5; BA 1.0 μM, 1 h, OE1, ↓ down): 3.21↓; ARR5 fold change (ARR5; BA 1.0 μM, 1 h, OE12, ↓ down): 3.52↓; ARR5 fold change (ARR5; BA 1.0 μM, 1 h, OE18, ↓ down): 4.72↓; ARR5 fold change (ARR5; BA 1.0 μM, 1 h, Wild type, ↑ up): 6.07↑; ARR5 fold change (ARR5; BA 5.0 μM, 5 min, AS1, ↑ up): 7.01↑; ARR5 fold change (ARR5; BA 5.0 μM, 5 min, AS8, ↑ up): 9.56↑; ARR5 fold change (ARR5; BA 5.0 μM, 5 min, AS21, ↑ up): 10.43↑; ARR5 fold change (ARR5; BA 5.0 μM, 5 min, OE1, ↓ down): 3.19↓; ARR5 fold change (ARR5; BA 5.0 μM, 5 min, OE12, ↓ down): 3.59↓; ARR5 fold change (ARR5; BA 5.0 μM, 5 min, OE18, ↓ down): 4.25↓; ARR5 fold change (ARR5; BA 5.0 μM, 5 min, Wild type, ↑ up): 6.72↑; ARR5 fold change (ARR5; BA 5.0 μM, 15 min, AS1, ↑ up): 7.31↑; ARR5 fold change (ARR5; BA 5.0 μM, 15 min, Wild type, ↑ up): 6.99↑; ARR5 fold change (ARR5; BA 5.0 μM, 1 h, AS1, ↑ up): 7.86↑; ARR5 fold change (ARR5; BA 5.0 μM, 1 h, AS8, ↑ up): 10.05↑; ARR5 fold change (ARR5; BA 5.0 μM, 1 h, AS21, ↑ up): 10.93↑; ARR5 fold change (ARR5; BA 5.0 μM, 1 h, OE1, ↓ down): 2.54↓; ARR5 fold change (ARR5; BA 5.0 μM, 1 h, OE12, ↓ down): 2.78↓; ARR5 fold change (ARR5; BA 5.0 μM, 1 h, OE18, ↓ down): 3.89↓; ARR5 fold change (ARR5; BA 5.0 μM, 1 h, Wild type, ↑ up): 7.24↑; ARR1 and ARR2 transcript levels (ARR1 and ARR2): not significantly affected
